Experimental findings from PubChem BioAssay (NCI) are described below.

Test systems include SNB-75 CNS; CCRF-CEM leukemia; UO-31 renal; SK-OV-3 ovarian; TK-10 renal; SF-268 CNS; HCT-15 colon.
Holding throughout (assay): inhibition of tumour cell growth, NCI panel, 48 h

The structures appear in SMILES notation.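 Five compound concentrations were applied to cells in 96-well plates for 48 hours; endpoints were derived by simple linear interpolation of the resulting dose-response curve. The concentration for 50% growth inhibition is given as GI50. TGI is the concentration that stops growth completely.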 A value given as a limit tells only on which side of the number the result lay.

As for `CC1(C)N=c2cc3c(cc2N1c1ccc(Cl)cc1)=Nc1ccccc1N3c1ccc(Cl)cc1`, the GI50 in the assay with SNB-75 CNS was 2.45 µM; in the assay on CCRF-CEM leukemia, 2.6 µM; in the assay with UO-31 renal it was 2.96 µM; with SK-OV-3 ovarian, greater than 100 µM; in the assay with TK-10 renal, 3.84 µM; with SF-268 CNS, 7.56 µM. Moreover, the GI50 with HCT-15 colon was 4.26 µM. Besides, the TGI with SNB-75 CNS was 71.6 µM; in the assay with CCRF-CEM leukemia, 13.9 µM; in the assay with UO-31 renal, greater than 100 µM; with SK-OV-3 ovarian, greater than 100 µM; in the assay with TK-10 renal it was 67 µM; in the assay with SF-268 CNS it was greater than 100 µM. The molecule also gave a TGI in the assay on HCT-15 colon greater than 100 µM.

As to `O=c1cc(-c2ccccc2)oc2c1ccc1ccccc12`, the GI50 is 11.6 µM in the assay on SNB-75 CNS; 22.8 µM with CCRF-CEM leukemia; 8.55 µM in the assay with UO-31 renal; 19.3 µM in the assay with SK-OV-3 ovarian; 28.2 µM in the assay with TK-10 renal; 37.3 µM in the assay with SF-268 CNS. The GI50 with HCT-15 colon is 30 µM. The TGI was 45.9 µM in the assay on SNB-75 CNS; 73.8 µM with CCRF-CEM leukemia; greater than 100 µM with UO-31 renal; 54.1 µM in the assay with SK-OV-3 ovarian; 65 µM in the assay with TK-10 renal; greater than 100 µM in the assay on SF-268 CNS. Further, the TGI in the assay with HCT-15 colon was greater than 100 µM.

With `CC1(C)CCc2c(c(N=Nc3ccccc3F)c3ccccc3c2O)O1`, the GI50 in the assay on SNB-75 CNS is 20.4 µM; with CCRF-CEM leukemia, greater than 100 µM; in the assay with UO-31 renal, 54.7 µM; with SK-OV-3 ovarian it was 25.7 µM; with TK-10 renal it was 68.2 µM; in the assay with SF-268 CNS it was 76.3 µM. Further, the GI50 with HCT-15 colon was 78.3 µM. The TGI in the assay with SNB-75 CNS is 53.3 µM; with CCRF-CEM leukemia, greater than 100 µM; in the assay with UO-31 renal, greater than 100 µM; in the assay on SK-OV-3 ovarian, 75.9 µM; with TK-10 renal, greater than 100 µM; with SF-268 CNS, greater than 100 µM. Also, the TGI in the assay on HCT-15 colon was greater than 100 µM.

For the molecule `O=C(c1ccccc1)C1OC1C(=O)c1ccccc1` (stereo not given), the GI50 with UO-31 renal was 8.09 µM; with SK-OV-3 ovarian, 7.98 µM; in the assay with TK-10 renal, 1.86 µM; in the assay with SF-268 CNS, 2.93 µM; with HCT-15 colon, 2.61 µM. Moreover, the TGI was 85.6 µM with UO-31 renal; greater than 100 µM in the assay with SK-OV-3 ovarian; 8.37 µM in the assay on TK-10 renal; 19.1 µM in the assay with SF-268 CNS; 12.2 µM in the assay on HCT-15 colon.

On to `O=C1c2cc3c(cc2-c2c1c1ccc(F)cc1c(=O)n2C[C@H](O)[C@H](O)[C@H](O)CO)OCO3`, for which the GI50 in the assay with CCRF-CEM leukemia is 0.0479 µM; in the assay with SK-OV-3 ovarian it was 0.186 µM; with TK-10 renal, 0.248 µM; in the assay with SF-268 CNS, 0.0704 µM; with HCT-15 colon, 0.199 µM. In addition, the TGI came out at 31.3 µM with CCRF-CEM leukemia; 0.694 µM with SK-OV-3 ovarian; 0.873 µM in the assay on TK-10 renal; 2.97 µM in the assay with SF-268 CNS; 0.724 µM in the assay with HCT-15 colon.

For `COc1ccc2c(c1)C(=O)c1c-2c(N2CCN(C(=O)CCNCCNCCN)CC2)nc2ccccc12`, the GI50 is 27.8 µM in the assay with SNB-75 CNS; 2.85 µM in the assay with CCRF-CEM leukemia; 10.5 µM in the assay with UO-31 renal; 14.6 µM in the assay on SK-OV-3 ovarian; 18.4 µM in the assay with TK-10 renal; 4.97 µM with SF-268 CNS. For the same molecule, the TGI in the assay with SNB-75 CNS was determined as 51.6 µM; with CCRF-CEM leukemia, 7.93 µM; in the assay on UO-31 renal, 30.4 µM; with SK-OV-3 ovarian, 30.6 µM; with TK-10 renal, 42.1 µM; with SF-268 CNS, 20.3 µM.

With `CCN(CCO)CCCC(C)Nc1ccnc2cc(Cl)ccc12` (stereo not given), the GI50 in the assay on SNB-75 CNS, with CCRF-CEM leukemia, with UO-31 renal, with SK-OV-3 ovarian, in the assay with TK-10 renal and in the assay with SF-268 CNS was greater than 100 µM in each case. Also, the GI50 with HCT-15 colon was greater than 100 µM. In addition, the TGI in the assay with SNB-75 CNS, with CCRF-CEM leukemia, with UO-31 renal, with SK-OV-3 ovarian, in the assay with TK-10 renal and in the assay with SF-268 CNS was greater than 100 µM each time. Further, the TGI with HCT-15 colon is greater than 100 µM.

For `CC[C@]12C=CCN3CC[C@@]4(c5ccc(OC)cc5N(C)[C@H]4[C@@](O)(C(=O)OC)[C@@H]1OC(=O)CCC(=O)O[C@H]1CC[C@H]4[C@@H]5CC[C@H]6CC(=O)CC[C@]6(C)[C@H]5CC[C@]14C)[C@@H]32`, the GI50 in the assay on SNB-75 CNS is 3.3 µM; in the assay with CCRF-CEM leukemia it was 3.04 µM; in the assay with SK-OV-3 ovarian, 2.89 µM; in the assay with TK-10 renal, 2.55 µM; in the assay on SF-268 CNS it was 4.81 µM; with HCT-15 colon it was 2.44 µM. Further, the TGI in the assay with SNB-75 CNS is greater than 100 µM; in the assay on CCRF-CEM leukemia it was greater than 100 µM; with SK-OV-3 ovarian, 9.55 µM; with TK-10 renal, 17.8 µM; in the assay on SF-268 CNS, greater than 100 µM; in the assay on HCT-15 colon it was greater than 100 µM.
